Read-outs that look alike come from different tables or passages of the source.
Legend:
[1] = tested on: patients with atrial fibrillation at risk of stroke; conditions: warfarin INR 2.0-3.0
Text: Median follow-up was 2.0 years and the primary outcome was stroke or systemic embolism.
Patients were recruited from 951 clinical centers in 44 countries. In brief, patients were eligible if they had atrial fibrillation documented on electrocardiogram at screening or within 6 months; and at least one of the following: prior stroke or transient ischemic attack; left ventricular ejection fraction less than 40%; New York Heart Association heart failure symptoms of Class 2 or greater within 6 months; age at least 75 years; or age at least 65 years with diabetes mellitus, hypertension or coronary artery disease.
The time in therapeutic range was calculated by the method of Rosendaal (Rosendaal F R, et al., A method to determine the optimal intensity of oral anticoagulant therapy, Thromb Haemost, 1993, 69:236-239), excluding INRs from the first week and after discontinuations. […] Concomitant use of aspirin (less than 100 mg/day) or other antiplatelet agents was allowed.
Liver function testing was performed monthly during the first year of follow-up.
The primary study outcome was stroke or systemic embolism. The primary safety outcome was major hemorrhage. Secondary outcomes were stroke, systemic embolism and death. Other outcomes were myocardial infarction, pulmonary embolism, transient ischemic attacks, and hospitalizations. The primary net benefit-risk outcome was the composite of stroke, systemic embolism, pulmonary embolism, myocardial infarction, death or major hemorrhage. Stroke was defined as sudden onset of focal neurological deficit consistent with the territory of a major cerebral artery and categorized as ischemic, hemorrhagic or unspecified. Hemorrhagic transformation of ischemic stroke was not considered as hemorrhagic stroke. Intracranial hemorrhage included hemorrhagic stroke and sub-dural or sub-arachnoid hemorrhage. Systemic embolism was an acute vascular occlusion of an extremity or organ documented by imaging, surgery or autopsy. Major bleeding was defined as a reduction in hemoglobin level of at least […] or transfusion of at least 2 units of blood or symptomatic bleeding in a critical area or organ. Life-threatening bleeding was a subset of major bleeding that included fatal bleeding, symptomatic intracranial bleeding, bleeding with hemoglobin decrease of more than […] or requiring transfusion of more than 4 units of blood or requiring inotropic agents or necessitating surgery. All other bleeding was considered minor.
All primary and secondary outcome events were blindly and doubly adjudicated. An international team of adjudicators reviewed documents in local languages after blinding; or documents were translated by a independent group and blinded centrally. All transient ischemic attacks were reviewed to ensure that strokes had not been missed. To detect possible unreported events, symptom questionnaires were regularly administered to patients, and adverse events and hospitalization reports were scrutinized for unreported primary or secondary outcomes.
If maximum of the two p-values was greater than 0.025, the minimum of the two p-values must be less than 0.0125, one-sided, to claim statistical significance. All analyses were based on intention-to-treat.

[2] = tested on: AF patients; conditions: SPORTIF V, cited from earlier work
[3] = tested on: AF patients; conditions: SPORTIF III, cited from earlier work
[4] = tested on: AF patients; conditions: ACTIVE W; cited from earlier work
[5] = tested on: patients who have nonvalvular atrial fibrillation; conditions: meta-analysis; cited from earlier work

CC(=O)CC(c1ccccc1)c1c(O)c2ccccc2oc1=O (racemic) [Warfarin, 3-(α-acetonylbenzyl)-4-hydroxycoumarin]
ALT or AST > 3xULN [1]: (2.1) %
ALT or AST > 3xULN with concurrent bilirubin > 2xULN [1]: (0.4) %
Adverse Event: Arthralgia [1]: (5.5) %
Adverse Event: Atrial fibrillation [1]: (5.4) %
Adverse Event: Back pain [1]: (5.5) %
Adverse Event: Chest pain [1]: (5.7) %
Adverse Event: Cough [1]: (5.8) %
Adverse Event: Diarrhea [1]: (5.5) %
Adverse Event: Dizziness [1]: (9.3) %
Adverse Event: Dyspepsia [1]: (1.4) %
Adverse Event: Dyspnoea [1]: (9.2) %
Adverse Event: Fatigue [1]: (5.9) %
Adverse Event: Nasopharyngitis [1]: (5.5) %
Adverse Event: Peripheral edema [1]: (7.6) %
Adverse Event: Upper respiratory tract infection [1]: (5.0) %
Adverse Event: Urinary tract infection [1]: (5.3) %
Major Bleeding, Life threatening, Rate [1]: 1.80 /100 Person Years
Major Bleeding, Other Major, Rate [1]: 1.80 /100 Person Years
Pulmonary embolism, Rate [1]: 0.09 /100 Person Years
Rate of discontinuation at 2.5 years [1]: 19%
Rate of hemorrhagic stroke [1]: 0.38 % per year
Rate of myocardial infarction [1]: 0.54 % per year
Rate of primary outcome, stroke or systemic embolism [1]: 1.70 % per year
Reason for discontinuation: Gastrointestinal bleeding [1]: (0.9) %
Reason for discontinuation: Gastrointestinal disorders (including pain, vomiting and diarrhea) [1]: (0.8) %
Reason for discontinuation: Outcome event [1]: (2.2) %
Reason for discontinuation: Patient decision [1]: (6.2) %
Reason for discontinuation: SAE [1]: (1.6) %
Stroke, systemic embolism, pulmonary embolism, myocardial infarction death or major bleed (net benefit), Rate [1]: 7.99 /100 Person Years
Study Drug Discontinuation at one year [1]: (10) %
Study Drug Discontinuation at two years [1]: (19) %
hepatobiliary disorders (AE) [1]: (2.2) %
hepatobiliary disorders (SAE) [1]: (0.4) %
Study Drug Discontinuation at one year ([1]; listed as warfarin): 10%
Myocardial Infarction [2]: 1.4% (warfarin)
Stroke and systemic embolism (per 100 patient years) ([2]; ximelagatran 36 mg b.i.d.): 1.2% (warfarin)
Myocardial Infarction [3]: 0.6% (warfarin)
Stroke and systemic embolism (per 100 patient years) ([3]; ximelagatran 36 mg b.i.d.): 2.3% (warfarin)
Myocardial Infarction [4]: 0.6% (warfarin)
Stroke and systemic embolism (per 100 patient years) [4]: 1.5% (warfarin)
Reduction of the risk of stroke compared to control [5]: 64%

Reference: patent publication US20110269799A1 (priority 2008, published 2011)
